Legend:
NS4B-GFP = NS4B-GFP (Hepatitis C virus genotype 1b, UniProt Q9WMX2); assay type: binding, HCV
GST-NS4B = molecular target: T1, GST-NS4B (Hepatitis C virus genotype 1b, UniProt Q9WMX2); test: RNA binding assay; parameters: species or system HCV; conditions: 5 mM nucleotide; compared with GTP-γ-S
T1 construct: wild type NS4B and the four NBM mutants were fused in frame with N-terminal Glutathione-S Transferase (GST) tags and assayed; made in house; host or cells: E. coli BL21 (pDEST15)
T1 sequence (Q9WMX2 1712-1972 limits assumed): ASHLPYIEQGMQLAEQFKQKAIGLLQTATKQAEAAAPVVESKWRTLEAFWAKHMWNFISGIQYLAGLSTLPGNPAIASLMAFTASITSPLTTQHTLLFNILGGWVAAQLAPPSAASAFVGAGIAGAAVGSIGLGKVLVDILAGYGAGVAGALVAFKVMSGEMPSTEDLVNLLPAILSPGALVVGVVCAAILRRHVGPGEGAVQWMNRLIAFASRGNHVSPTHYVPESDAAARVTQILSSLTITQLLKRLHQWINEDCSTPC
Experimental: RNA binding assay. 1 μg of purified protein was incubated for an hour at 37° C. in a 50 μl reaction mixture containing ^32P-labeled in vitro transcribed HCV RNA (prepared by using Sca I-linearized Bart79I plasmid (wild type HCV replicon (3)) as template, T7 RNA polymerase, and Riboprobe®/Promega, according to the manufacturer's protocol), binding buffer (10 mM DTT, 10 mM Na HEPES (pH 7.4), 33 mM NaCl, 0.1 mM EDTA, 10 mM MgCl2) and 5 mM of either GTP-γ-S or GDP (Sigma). 50 μl of tRNA pre-coated glutathione-agarose beads (Sigma) were then added, followed by 1 hour incubation at 4° C. to allow binding of GST to the beads. Samples were then washed three times in the binding buffer (in the absence of nucleotides). Aliquots were finally subjected to liquid scintillation counting for measuring bound RNA. Control incubations performed with reaction mixture prepared as above but with omission of T7 RNA polymerase were run in parallel and used for background subtraction.

Row | SMILES | labeling of NS4B-GFP by 32P-labeled photoactivatable nucleotide (NS4B-GFP) | other results
1 | [N-]=[N+]=Nc1ccc(NP(=O)(O)OP(=O)(O)OP(=O)(O)OC[C@H]2O[C@@H](n3cnc4c(=O)[nH]c(N)nc43)[C@H](O)[C@@H]2O)cc1 [GTP, GTP-γ-4-azidoanilide] | specifically labeled | 
2 | [N-]=[N+]=Nc1ccc(NP(=O)(O)OP(=O)(O)OP(=O)(O)OC[C@H]2O[C@@H](n3cnc4c(N)ncnc43)[C@H](O)[C@@H]2O)cc1 [ATP, ATP-γ4-azidoanilide] | significantly less efficient than GTP binding | 
3 | Nc1nc2c(ncn2[C@@H]2O[C@H](COP(=O)(O)OP(=O)(O)O)[C@@H](O)[C@H]2O)c(=O)[nH]1 [GDP] |  | HCV RNA binding of GST-NS4B in the presence of guanyl nucleotide (GST-NS4B): dramatically increased
4 | Nc1nc2c(ncn2[C@@H]2O[C@H](COP(=O)(O)OP(=O)(O)OP(O)(O)=S)[C@@H](O)[C@H]2O)c(=O)[nH]1 [GTPγS] |  | binding of labeled GTP in the presence of cold competitor nucleotide (NS4B-GFP): progressively decreased
